Counter-ions that a name gives are not always drawn.

Data set [1] concerns rhythm disorders induced by aconitine. In words: Anti-arrhythmic activity in the guinea-pig (aconitine-induced arrhythmia). The following applies: for Average time for arrhythmia to appear, PES (polymorphic extrasystoles) / Average time for arrhythmia to appear, VT (ventricular tachycardia) / Average time for arrhythmia to appear, MTV (multifocal ventricular tachycardia) / Average time for arrhythmia to appear, VTB (ventricular tachycardia bursts): 6 guinea pigs; for Average time for arrhythmia to appear, PES (polymorphic extrasystoles): controls 27 ± 2; for Average time for arrhythmia to appear, VT (ventricular tachycardia): controls 30 ± 2; for Average time for arrhythmia to appear, MTV (multifocal ventricular tachycardia): controls 41 ± 2; for Average time for arrhythmia to appear, VTB (ventricular tachycardia bursts): controls 63 ± 4; for Delay of rhythm disorders induced by aconitine: I.V., guinea-pig, compared with amiodarone. Format: in vivo. The protocol: Anti-arrhythmic activity in the guinea-pig
Reference: Experimental evaluation of anti-arrhythmic drugs in the guinea-pig. GUIDICELLI, WITCHITZ, LARNO, BOISSIER, Biomedecine, 1973, 19, 308-313.
Male and female guinea-pigs were used, weighing from 600 to 800 g and anesthetised with urethane (1.25 g/kg/I.P.), tracheotomised and kept under artificial respiration. The electrocardiogram (D2) was recorded.
Arrhythmia was produced by perfusion at the rate of 0.5 ml/min of an aqueous solution of aconitine nitrate (0.15 mg/ml) in the jugular vein. Measurements were made of the time before the following rhythm disturbances appeared:
Polymorphic extrasystoles (PES),
Ventricular tachycardia (VT),
Multifocal ventricular tachycardia (MVT),
Ventricular tachycardia bursts (VTB),
that is a sequence of ventricular complexes of fixed frequency but with regular increasing and decreasing amplitude.
The following substances were used:
Amiodarone hydrochloride for comparison.
The substances were intravenously injected immediately before perfusion with aconitine had started.

In data set [2] the test system is tachycardia produced by isoprenaline stimulation of the sympathicoβ receptors of the heart. In words: Sympathico-inhibiting activity in the conscious dog (isoprenaline tachycardia). Format: in vivo, dog (mongrel). The following applies: for Effect of isoprenaline after substance injected: 4 mg/kg I.V., 6 dogs, before injection 114 ± 9 (controls), (S) significant to P = 0,05. Here is the method: Sympathico-inhibiting activity in the conscious dog
The dogs used were male and female mongrels weighing from 15 to 20 kg. The animals were not anaesthetised. Their electrocardiograms (D2) and heart rates were measured.
Short bouts of tachycardia, approx. 1 minute long, were produced by intravenously injecting a solution of isoprenaline in doses of 0.25 Y/kg. The injections were repeated every 15 minutes until the increase in heart rate had been reproduced in a satisfactory manner.
Next, the substance under study was intravenously injected and 3 additional measurements of the isoprenaline tachycardia were made 5 minutes, 20 minutes and 35 minutes after the product under study had been administered.

Another data set has as its system spontaneous heart rate. In words: Bradycardiac activity on the conscious dog. Type of data set: in vivo, dog (mongrel). Particulars: 4 mg/kg I.V.; for Average heart beat after substance injected: 9 dogs, before injection 132 ± 9, (S) significant to p = 0,05. Here is the method:
Bradycardiac activity on the conscious dog
The dogs used were male and female mongrels weighing from 15 to 20 kg. Their bypass electrocardiograms (D2) were recorded and their heart rate (FC) was measured with a cardiotachometer.
The animals were not used to tests and consequently their heart rate was relatively high, 130 beats per minute on average.
3 control measurements of the heart rate were made during the hour before intravenous injection of the substance under study, and 3 further measurements were made 5 minutes, 20 minutes and 35 minutes after administration.

The nature of data set [3]: Acute toxicity in the mouse. The following applies: female Swiss mice. Type of data set: in vivo. Here is the method: Acute toxicity in the mouse
The acute toxicity of compound No. 6 administered intravenously (I.V.) and orally (P.O.) was determined in female mice of the Swiss strain weighing from 25 to 27 g.
Compound No. 6 was administered in aqueous solution in a concentration of 0.4% intravenously and in a concentration of 1% and 4% orally.

`CCCCc1oc2ccccc2c1C(=O)c1cc(I)c(OCCN(CC)CC)c(I)c1` [Amiodarone (hydrochloride), Amiodarone hydrochloride, reference compound]: in data set [1] (4 mg/kg I.V.), the “Average time for arrhythmia to appear, PES (polymorphic extrasystoles)” value (“Average time … (polymorphic extrasystoles)” below) came to 32 ± 3 s; the “Average time for arrhythmia to appear, VT (ventricular tachycardia)” value (from here on “Average time … (ventricular tachycardia)”) stood at 44 ± 6 s; the “Average time for arrhythmia to appear, MTV (multifocal ventricular tachycardia)” value amounted to 59 ± 5 s; the “Average time for arrhythmia to appear, VTB (ventricular tachycardia bursts)” value (shortened to “Average time … (ventricular tachycardia bursts)”) stood at 94 ± 8 s.
In the case of `CCCCN(CCCC)CCCOc1c(C)cc(C(=O)c2cc(=O)c3ccccc3o2)cc1C` [Compound No. 1, 2-[4-(3-N,N-dibutylaminopropoxy) 3,5-dimethylbenzoyl] chromone hydrochloride], the “Effect of isoprenaline after substance injected” value in data set [2] (5 min, spread ±12) was 68 beats per minute; in data set [2] (20 min, spread ±10), 89 beats per minute; in data set [2] (35 min, spread ±10), 97 beats per minute. In addition, in data set [2] (isoprenaline tachycardia, conscious dog), the Sympathico-inhibiting activity result is given as “can moderate tachycardia produced by isoprenaline stimulation”. Also, in data set [1] (2 mg/kg I.V.), the “Average time … (polymorphic extrasystoles)” value worked out at 63 ± 4 s. Also, the “Average time … (ventricular tachycardia)” value in data set [1] (2 mg/kg I.V.) is 79 ± 9 s. Also, the “Average time for arrhythmia to appear, MTV (multifocal ventricular tachycardia)” value in data set [1] (2 mg/kg I.V.) stood at 94 ± 10 s. Also, the “Average time … (ventricular tachycardia bursts)” value in data set [1] (2 mg/kg I.V.) turned out to be 139 ± 11 s. Further, in data set [1], the “Delay of rhythm disorders induced by aconitine” value was “delay rhythm disorders induced by aconitine to a greater extent than the conventional reference compound, amiodarone”. For the same molecule, the “Effect on spontaneous heart rate” value with spontaneous heart rate (conscious dog) was “significantly lowers the spontaneous heart rate”. For the same molecule, the “Average heart beat after substance injected” value with spontaneous heart rate (5 min, spread ±10) came out at 114 beats/min; with spontaneous heart rate (20 min, spread ±8), 109 beats/min; in the data set on spontaneous heart rate (35 min, spread ±8), 107 beats/min.
For the molecule `CCCCN(CCCC)CCCOc1c(C)cc(C(=O)c2oc3ccccc3c(=O)c2C)cc1C` [Compound No. 6, 2-[4-(3-N,N-dibutylaminopropoxy) 3,5-dimethylbenzoyl] 3-methyl chromone hydrochloride], the Lethal dose in data set [3] (I.V., aqueous solution 0.4%) was about 30 mg/kg; in data set [3] (P.O., aqueous solution 1% and 4%), about 1200 mg/kg.
With `CCCCN(CCCC)CCOc1c(C)cc(C(=O)c2cc(=O)c3ccccc3o2)cc1C` [Compound No. 7, 2-[4-(2-N,N-dibutylaminoethoxy) 3,5-dimethylbenzoyl] chromone hydrochloride], in data set [1] (4 mg/kg I.V.), the “Average time … (polymorphic extrasystoles)” value came to 36 ± 4 s; the “Average time … (ventricular tachycardia)” value worked out at 55 ± 8 s; the “Average time for arrhythmia to appear, MTV (multifocal ventricular tachycardia)” value was found to be 77 ± 9 s; the “Average time … (ventricular tachycardia bursts)” value stood at 145 ± 10 s. Further, the “Delay of rhythm disorders induced by aconitine” value in data set [1] was “delay rhythm disorders induced by aconitine to a greater extent than the conventional reference compound, amiodarone”.
